Legend:
Format in all cases: in vivo
[1] = system: Cabbage Looper [Trichoplusia ni (Hubner)]; assay: Cabbage looper leaf dip (CL), 3-5 days; settings: percent in solution, second-instar larvae
How it was run: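 Compounds in 50-50 acetone-water were applied by dipping squash cotyledons (about 1×1.5 in) for 2-3 s; dried leaves went into petri dishes on moist filter paper with 5 second-instar larvae under high humidity. Mortality was scored after 3-5 days; LC50 from dosage-mortality curves, as percent compound in solution.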

[2] = system: Black Bean Aphid [Aphis fabae (Scop.)]; assay: Black bean aphid spray test on nasturtium (BBA), 48 hours; settings: percent of test compound in sprayed solution
How it was run: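 LC50, given as percent test compound in the sprayed liquid, was calculated from dosage-mortality curves using concentrations from 0.05% downward. Sprays in 50:50 acetone-water went to runoff on ~5 cm nasturtiums carrying 25-50 aphids of mixed ages, one day after infestation. Deaths were counted 48 h later under greenhouse conditions.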

[3] = system: Aster Leafhopper [Macrosteles fascifrens (Stal)]; assay: Aster leafhopper on dipped oat seedlings (LH), 48 hours; settings: percent in solution, adults/nymphs
How it was run: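 Three ~10 cm oat seedlings per cup were dipped 2-3 seconds in 50-50 acetone-water compound solutions, dried, and caged with ten adult/nymph leafhoppers. Mortality was counted after 48 hours at concentrations from 0.05% downward. LC50, as percent compound in solution, came from dosage-mortality curves.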

[4] = system: Tobacco Budworm [Heliothis virescens (Fabricius)] larvae; assay: Tobacco budworm larvae, contact (TBW-C), 5 days; settings: percent in solution, second-instar larvae
Description: The compounds in Tables 1 and 2 above were tested for insecticidal activity using the following testing procedures. LC50 values, based on the results of these tests and calculated according to dosage-mortality curves, are expressed in Table 3.
Tobacco Budworm [Heliothis virescens (Fabricius)]:
(a) Contact: Test compounds were diluted in a 50-50 acetone-water solution. Cotton (Gossypium sp.) cotyledons were immersed in the test solutions for 2-3 seconds and placed on a wire screen to dry. The dried leaves were placed in petri dishes containing a moistened piece of filter paper and infested with 5 second-instar tobacco budworm larvae. The dishes were placed in a high humidity chamber for 5 days, and percent mortality of the larvae recorded. Test concentrations ranged from 0.1% downward. The LC-50 values are expressed below in Table 3 under the heading "TBW-C" in terms of percent of the test compound in the solution.

[5] = system: Tobacco Budworm [Heliothis virescens (Fabricius)] eggs; assay: Tobacco budworm eggs (TBW-E); settings: percent in solution; 2-day old eggs
How it was run: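 Paper towel patches bearing 2-day old eggs were dipped in acetone solutions of compound, then set in petri dishes over larval rearing medium at 78° F. Mortality was scored once all control eggs had hatched and larvae were feeding. LC50, from dosage-mortality curves, is given as percent compound in solution.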

[6] = system: Maize weevil [Sitophilus zeamais (Motschulsky)]; assay: Maize weevil on dipped corn seeds (MW), 48 hours; settings: percent in solution, adult weevils
How it was run: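 LC50, given as percent of compound in dipping solution, comes from dosage-mortality curves over concentrations descending from 0.01%. Four corn seeds soaked 2-3 s in 50:50 acetone:water solution were dried and held with 10 adult weevils, about 25° C, mortality read after 48 h.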

[7] = system: Housefly [Musca domestica]; assay: Housefly contact mortality in dishes (HF), 48 hours; settings: μg of test compound per 25 female flies
How it was run: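 Residual contact test: acetone dilution, 0.01% peanut oil spreader, solvent evaporated; 25 ♀ flies (1-2 d old) per cage; sugar-water plug; 48 h mortality read. LC50 in μg/25 female flies, from dose-mortality curves; top dose 100 μg/25 flies.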

SMILES | LC50 CL [1] [%] | LC50 BBA [2] [%] | LC50 LH [3] [%] | LC50 TBW C (contact) [4] [%] | LC50 TBW E (eggs) [5] [%] | LC50 MW [6] [%] | LC50 HF [7] [µg]
CC(C)C(=Nc1ccc(F)c(Cl)c1)OCc1cccc(Oc2ccc(Br)cc2)c1 [Compound 238] | 0.0002 | 0.003 | > 0.05 | 0.0004 | 0.05 | > 0.01 | 25
CC(C)C(=Nc1ccc(F)c(C(F)(F)F)c1)OCc1ccc(F)c(Oc2ccc(Cl)cc2)c1 [Compound 297] | 0.00027 | – | 0.0001 | 0.00075 | 0.025 | 0.0071 | 23
CC(C)C(=Nc1ccc(F)c(Cl)c1)OCc1cccc(Oc2ccc(F)c(F)c2)n1 [Compound 531] | > 0.1 | > 0.05 | > 0.05 | 0.00037 | > 0.1 | > 0.01 | 5
CC(C)C(=Nc1cccc(C(F)(F)F)c1)OCc1cccc(Oc2ccc(F)cc2)c1 [Compound 202] | 0.00024 | 0.003 | 0.0003 | 0.0007 | > 0.1 | > 0.01 | 18
CC(C)C(=Nc1ccc(F)c(Cl)c1F)OCc1cccc(Oc2ccc(F)cc2)n1 [Compound 521] | 0.00005 | 0.0008 | 0.05 | 0.0005 | > 0.1 | 0.01 | 7.5
CC(C)C(=Nc1c(F)c(F)c(F)c(F)c1F)OCc1cccc(Oc2ccccc2)c1 [Compound 51] | 0.001 | 0.01 | 0.001 | 0.0025 | 0.067 | – | 25
C#CCc1c(F)c(F)c(COC(=Nc2ccc(F)c(Cl)c2)C(C)C)c(F)c1F [Compound 520] | > 0.1 | 0.0002 | 0.0003 | 0.00075 | > 0.1 | 0.0042 | 5.5
C=C(C)C(=Nc1ccc(C(F)(F)F)cc1)OCc1ccc(F)c(Oc2ccc(Cl)cc2)c1 [Compound 432] | 0.0012 | 0.001 | – | < 0.1 | 0.032 | > 0.01 | < 100
CC(C)(C)C(=Nc1ccc(Cl)cc1)OCc1cccc(Oc2ccccc2)c1 [Compound 30] | 0.003 | > 0.05 | > 0.05 | 0.01 | > 0.1 | > 0.01 | > 100
CC(C)C(=Nc1ccc(Br)cc1)OCc1cccc(Oc2ccc(F)cc2)c1 [Compound 226] | 0.0005 | 0.01 | 0.002 | 0.001 | 0.1 | 0.009 | 16
CC(C)C(=Nc1ccc2c(c1)OC(C)(C)O2)OCc1cccc(Oc2ccc(F)cc2)c1 [Compound 219] | 0.00025 | 0.003 | – | 0.004 | 0.027 | > 0.01 | 50
CC(C)C(=Nc1ccc(Cl)c(Cl)c1)OCc1cccc(Oc2ccc(F)cc2)c1 [Compound 37] | 0.0004 | – | 0.002 | 0.0005 | 0.014 | 0.009 | 21
CC(C)C(=Nc1ccc(I)cc1)OCc1cccc(Oc2ccc(F)cc2)c1 [Compound 234] | 0.00045 | 0.003 | 0.003 | 0.0013 | 0.09 | > 0.01 | 38
COc1ccccc1N=C(OCc1cccc(Oc2ccccc2)c1)C(C)C [Compound 145] | 0.05 | > 0.05 | > 0.05 | 0.05 | > 0.1 | – | > 100
CC(C)C(=Nc1ccc(F)c(F)c1)OCc1cccc(Oc2ccc(F)cc2)c1 [Compound 60, N-(3,4-Difluorophenyl)-O-(4'-fluoro-3-phenoxybenzyl)isobutyrylimidate] | 0.001 | – | 0.002 | 0.0009 | 0.017 | 0.0075 | 8
CC(C)C(=Nc1ccc(F)cc1F)OCc1cccc(Oc2ccc(F)cc2)c1 [Compound 209] | 0.0007 | 0.01 | 0.001 | 0.005 | 0.1 | > 0.01 | 17
Cc1ccc(N=C(OCc2cccc(Oc3ccccc3)c2)C(C)C)cc1F [Compound 75] | 0.0025 | 0.0006 | 0.0008 | 0.0075 | 0.01 | – | 5
CC(C)C(=Nc1ccc(F)c(Cl)c1)OCc1cccc(Oc2ccccc2)n1 [Compound 462] | 0.001 | 0.001 | 0.001 | 0.0025 | 0.04 | > 0.05 | 7
CC(C)C(=Nc1ccc(C(F)(F)F)cc1)OCc1cccc(Oc2ccc(Cl)cc2)n1 [Compound 530] | 0.00027 | 0.0003 | 0.05 | 0.00005 | 0.005 | > 0.01 | 9.8
CC(C)C(=Nc1ccc(F)c(Cl)c1)OCc1cccc(Oc2ccc(C#N)cc2)c1 [Compound 196] | 0.0006 | – | > 0.05 | 0.001 | > 0.1 | > 0.01 | 17
CC(C)C(=Nc1cccc(Cl)c1)OCc1cccc(Oc2ccc(F)cc2)c1 [Compound 194] | 0.0005 | 0.001 | 0.0005 | 0.0017 | 0.04 | > 0.01 | 10
CC(C)C(=Nc1ccc(F)c(C(F)(F)F)c1)OCc1cccc(Oc2ccc(F)cc2)c1 [Compound 120] | 0.00015 | 0.0006 | 0.0003 | 0.0025 | 0.04 | > 0.01 | 14
CCC(C)C(=Nc1ccc(F)c(Cl)c1)OCc1cccc(Oc2ccc(F)cc2)c1 (centres unmarked) [Compound 210] | 0.00028 | 0.01 | – | 0.0015 | 0.045 | > 0.01 | 35
CC(C)C(=Nc1ccc(Cl)c(Cl)c1)OCc1cccc(Oc2ccc(Cl)cc2)n1 [Compound 523] | 0.00015 | 0.001 | > 0.05 | 0.0002 | > 0.1 | > 0.01 | 22
CCOc1ccc(N=C(OCc2cccc(Oc3ccccc3)c2)C(Cl)Cl)cc1 [Compound 138] | 0.005 | 0.003 | – | 0.015 | 0.08 | > 0.01 | 19
